Reference: patent US12410171B2, “Tropomyosin receptor kinase (TRK) degradation compounds and methods of use” (Cullgen (Shanghai), Inc., priority 2020, dated 2025)
Read-outs that look alike come from different tables or passages of the source.

Columns and labels:
TPM3-TRKA fusion protein = target: T1, TPM3-TRKA fusion protein (Homo sapiens, UniProt P04629); test: TPM3-TRKA fusion protein levels in KM12 cells (Western blot); type: cell-based; conditions: read-out: Degradation (at 10 nM)
T1 construct: The resulted chimeric proteins always retain the kinase domain of TRK proteins; TPM3 (fusion partner, N-terminal part of tropomyosin alpha-3, P06753); endogenous in cells; host or cells: KM12 colon cancer cells; the other entry of the earlier key: TPM3 (P06753, Tropomyosin alpha-3 chain)
In short: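 TPM3-TRKA levels were assessed by Western blot with chemiluminescent detection and band densitometry, after SDS-PAGE of BCA-normalized RIPA lysates. Before lysis, KM12 cells received DMSO, compounds or matched control compounds at concentrations including 0.1, 1, 10 and 100 nM and 0.4–30 nM. Exposures lasted 4 h, 8–16 h or 16 h.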

KM12 cells = test: KM12 cell viability (CellTiter-Glo); type: cell-based; conditions: Homo sapiens
In short: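 Three-day exposure of KM12 cells (5000/well, RPMI 1640 with 10% FBS, 37 °C, 5% CO2) to compound dilution series, 3-fold over 8 or 11 points (top 1000 nM in the 8-point format) or 2-fold over 12. CellTiter-Glo readout, with IC50 fitted by nonlinear least-squares regression.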

[1] = 16 h, TPM3-TRKA degradation in KM12 cells at 10 nM compound, category of percentage degradation
[2] = 72 h, KM12 cell viability, CellTiter-Glo, three days treatment, read-out: IC50

T1 sequence (P04629 with tags, fused parts or gaps): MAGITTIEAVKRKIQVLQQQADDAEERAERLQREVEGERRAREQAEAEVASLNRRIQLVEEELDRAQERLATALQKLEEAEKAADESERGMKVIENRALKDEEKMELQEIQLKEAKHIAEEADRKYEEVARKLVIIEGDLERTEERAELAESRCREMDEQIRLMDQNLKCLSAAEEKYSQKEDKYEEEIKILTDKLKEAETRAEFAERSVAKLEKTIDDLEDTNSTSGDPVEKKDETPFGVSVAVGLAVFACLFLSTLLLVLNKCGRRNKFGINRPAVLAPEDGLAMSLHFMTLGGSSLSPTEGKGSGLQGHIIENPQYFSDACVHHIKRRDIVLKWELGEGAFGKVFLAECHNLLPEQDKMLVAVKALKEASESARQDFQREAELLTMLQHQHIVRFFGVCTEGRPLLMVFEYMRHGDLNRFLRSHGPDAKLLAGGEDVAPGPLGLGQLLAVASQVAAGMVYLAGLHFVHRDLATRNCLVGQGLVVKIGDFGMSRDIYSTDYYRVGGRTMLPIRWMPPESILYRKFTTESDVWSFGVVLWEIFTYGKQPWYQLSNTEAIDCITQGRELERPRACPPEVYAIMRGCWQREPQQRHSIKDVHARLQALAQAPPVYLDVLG

Compound	percent degradation of TPM3-TRKA protein at 0.01 µM (TPM3-TRKA fusion protein; [1]) [%]	IC50 (KM12 cells; [2]) [nM]	percent degradation of TPM3-TRKA protein at 0.01 µM (TPM3-TRKA fusion protein; KM12, 16 h) [%]	IC50 (KM12 cells; KM12, 72 h) [nM]
O=C1CCC(N2Cc3cc(C#CCN4CCN(c5ccc(C(=O)Nc6n[nH]c7ccc(Cc8cc(F)cc(F)c8)cc67)c(NC6CCOCC6)c5)CC4)ccc3C2=O)C(=O)N1 (centres unmarked) [TR-253, N-(5-(3,5-Difluorobenzyl)-1H-indazol-3-yl)-4-(4-(3-(2-(2,6-dioxopiperidin-3-yl)-1-oxoisoindolin-5-yl)prop-2-yn-1-yl)piperazin-1-yl)-2-((tetrahydro-2H-pyran-4-yl)amino)benzamide]	> 80	6.9		
O=C1CCC(N2C(=O)c3ccc(CN4CC(N5CCN(c6ccc(C(=O)Nc7n[nH]c8ccc(Cc9cc(F)cc(F)c9)cc78)c(NC7CCOCC7)c6)CC5)C4)cc3C2=O)C(=O)N1 (centres unmarked) [TR-254, N-(5-(3,5-difluorobenzyl)-1H-indazol-3-yl)-4-(4-(1-((2-(2,6-dioxopiperidin-3-yl)-1,3-dioxoisoindolin-5-yl)methyl)azetidin-3-yl)piperazin-1-yl)-2-((tetrahydro-2H-pyran-4-yl)amino)benzamide]			> 80	20.3
O=C1CCC(N2Cc3cc(C#CCN4CCN(c5ccc(C(=O)Nc6n[nH]c7ccc(Cc8cc(F)cc(F)c8)cc67)c(NCCF)c5)CC4)ccc3C2=O)C(=O)N1 (stereo not drawn) [TR-255, N—(S-(3,5-Difluorobenzyl)-1H-indazol-3-yl)-4-(4-(3-(2-(2,6-dioxopiperidin-3-yl)-1-oxoisoindolin-5-yl)prop-2-yn-1-yl)piperazin-1-yl)-2-((2-fluoroethyl)amino)benzamide]	> 80	14.4		
O=C1CCC(N2Cc3cc(C#CCN4CCN(c5ccc(C(=O)Nc6n[nH]c7ccc(Cc8cc(F)cc(F)c8)cc67)cc5)CC4)ccc3C2=O)C(=O)N1 (stereo not drawn) [TR-256, N—(S-(3,5-Difluorobenzyl)-1H-indazol-3-yl)-4-(4-(3-(2-(2,6-dioxopiperidin-3-yl)-1-oxoisoindolin-5-yl)prop-2-yn-1-yl)piperazin-1˜yl)benzamide]	50 to 80	46.9		
Cn1c(=O)n(C2CCC(=O)NC2=O)c2cccc(N3CC(CN4CCN(c5cccc(-c6cnc7ccc(N8CCC[C@@H]8c8cccc(F)c8)nn67)n5)CC4)C3)c21 (stereo partly drawn) [TR-258, 3-(4-(3-((4-(6-(6-((R)-2-(3-fluorophenyl)pyrrolidin-1-yl)imidazo[1,2-b]pyridazin-3-yl)pyridin-2-yl)piperazin-1-yl)methyl)azetidin-1-yl)-3-methyl-2-oxo-2,3-dihydro-1H-benzo[d]imidazol-1-yl)piperidine-2,6-dione]	> 80	10.4		
Cn1c(=O)n(C2CCC(=O)NC2=O)c2ccc(CCCCN3CCN(c4cccc(-c5cnc6ccc(N7CCC[C@@H]7c7cccc(F)c7)nn56)n4)CC3)cc21 (stereo partly drawn) [TR-259, 3-(5-(4-(4-(6-(6-((R)-2-(3-fluorophenyl)pyrrolidin-1-yl)imidazo[1,2-b]pyridazin-3-yl)pyridin-2-yl)piperazin-1-yl)butyl)-3-methyl-2-oxo-2,3-dihydro-1H-benzo[d]imidazol-1-yl)piperidine-2,6-dione]	> 80	5.3		
Cn1c(=O)n(C2CCC(=O)NC2=O)c2ccc(C#CCCN3CCN(c4cccc(-c5cnc6ccc(N7CCC[C@@H]7c7cccc(F)c7)nn56)n4)CC3)cc21 (stereo partly drawn) [TR-260, 3-(5-(4-(4-(6-(6-((R)-2-(3-fluorophenyl)pyrrolidin-1-yl)imidazo[1,2-b]pyridazin-3-yl)pyridin-2-yl)piperazin-1-yl)but-1-yn-1-yl)-3-methyl-2-oxo-2,3-dihydro-1H-benzo[d]imidazol-1-yl)piperidine-2,6-dione]	> 80	26.4		
O=C1CCC(N2C(=O)c3ccc(CN4CC(N5CCN(c6ccc(C(=O)Nc7n[nH]c8ccc(Cc9cc(F)cc(F)c9)cc78)cc6)CC5)C4)cc3C2=O)C(=O)N1 (centres unmarked) [TR-261, N-(5-(3,5-Difluorobenzyl)-1H-indazol-3-yl)-4-(4-(1-((2-(2,6-dioxopiperidin-3-yl)-1,3-dioxoisoindolin-S-yl)methyl)azetidin-3-yl)piperazin-1-yl)benzamide]			50 to 80	366
O=C1CCC(N2C(=O)c3ccc(CN4CC(CN5CCN(c6ccc(C(=O)Nc7n[nH]c8ccc(Cc9cc(F)cc(F)c9)cc78)cc6)CC5)C4)cc3C2=O)C(=O)N1 (centres unmarked) [TR-262, N-(5-(3,5-Difluorobenzyl)-1H-indazol-3-yl)-4-(4-((1-((2-(2,6-dioxopiperidin-3-yl)-1,3-dioxoisoindolin-5-yl)methyl)azetidin-3-yl)methyl)piperazin-1-yl)benzamide]	> 80	81		
O=C1CCC(N2C(=O)c3ccc(NCCN4CCN(c5ccc(C(=O)Nc6n[nH]c7ccc(Cc8cc(F)cc(F)c8)cc67)cc5)CC4)cc3C2=O)C(=O)N1 (centres unmarked) [TR-263, N-(5-(3,5-difluorobenzyl)-1H-indazol-3-yl)-4-(4-(2-((2-(2,6-dioxopiperidin-3-yl)-1,3-dioxoisoindolin-5-yl)amino)ethyl)piperazin-1-yl)benzamide]	50 to 80	19.2		
O=C1CCC(N2C(=O)c3ccc(NCC(=O)N4CCN(c5ccc(C(=O)Nc6n[nH]c7ccc(Cc8cc(F)cc(F)c8)cc67)cc5)CC4)cc3C2=O)C(=O)N1 (centres unmarked) [TR-264, N-(5-(3,5-difluorobenzyl)-1H-indazol-3-yl)-4-(4-((2˜ (2,6-dioxopiperidin-3-yl)-1,3-dioxoisoindolin-5-yl)glycyl)piperazin-1-yl)benzamide]	> 80	9.9		
O=C1CCC(N2C(=O)c3ccc(N4CC(CN5CCN(c6ccc(C(=O)Nc7n[nH]c8ccc(Cc9cc(F)cc(F)c9)cc78)cc6)CC5)C4)cc3C2=O)C(=O)N1 (centres unmarked) [TR-265, N-(5˜ (3,5-difluorobenzyl)-1H-indazol-3-yl)-4-(4-((1-(2-(2,6-dioxopiperidin-3-yl)-1,3-dioxoisoindolin-5-yl)azetidin-3-yl)methyl)piperazin-1-yl)benzamide]	> 80	13.3		
O=C1CCC(N2C(=O)c3ccc(NCC(=O)N4CCN(c5ccc(C(=O)Nc6n[nH]c7ccc(Cc8cc(F)cc(F)c8)cc67)c(NCCF)c5)CC4)cc3C2=O)C(=O)N1 (centres unmarked) [TR-266, N-(5-(3,5-difluorobenzyl)-1H-indazol-3-yl)-4-(4˜ ((2-(2,6-dioxopiperidin-3-yl)-1,3-dioxoisoindolin-5-yl)glycyl)piperazin-1-yl)-2-((2-fluoroethyl)amino)benzamide]	> 80	7.2		
O=C1CCC(N2C(=O)c3ccc(N4CC(CN5CCN(c6ccc(C(=O)Nc7n[nH]c8ccc(Cc9cc(F)cc(F)c9)cc78)c(NCCF)c6)CC5)C4)cc3C2=O)C(=O)N1 (centres unmarked) [TR-267, N-(5-(3,5-difluorobenzyl)-1H-indazol-3-yl)-4-(4-((1-(2-(2,6-dioxopiperidin-3-yl)-1,3-dioxoisoindolin-5-yl)azetidin-3-yl)methyl)piperazin-1-yl)-2-((2-fluoroethyl)amino)benzamide]	> 80	11.7		
O=C1CCC(N2C(=O)c3ccc(NCCN4CCN(c5ccc(C(=O)Nc6n[nH]c7ccc(Cc8cc(F)cc(F)c8)cc67)c(NCCF)c5)CC4)cc3C2=O)C(=O)N1 (centres unmarked) [TR-268, N-(5-(3,5-Difluorobenzyl)-1H-indazol-3-yl)-4-(4-(2-((2-(2,6-dioxopiperidin-3-yl)-1,3-dioxoisoindolin-5-yl)amino)ethyl)piperazin-1-yl)-2-((2-fluoroethyl)amino)benzamide]	> 80	6.2		
O=C1CCC(N2C(=O)c3ccc(N4CCN(c5ccc(C(=O)Nc6n[nH]c7ccc(Cc8cc(F)cc(F)c8)cc67)c(NC6CCOCC6)c5)CC4)cc3C2=O)C(=O)N1 (centres unmarked) [TR-269, N-(5-(3,5-Difluorobenzyl)-1H-indazol-3-yl)-4-(4-(2-(2,6-dioxopiperidin-3-yl)-1,3-dioxoisoindolin-5-yl)piperazin-1-yl)-2-((tetrahydro-2H-pyran-4-yl)amino)benzamide]	< 50	44.6		
O=C1CCC(N2C(=O)c3ccc(N4CCC(CN5CCN(c6ccc(C(=O)Nc7n[nH]c8ccc(Cc9cc(F)cc(F)c9)cc78)c(NC7CCOCC7)c6)CC5)C4)cc3C2=O)C(=O)N1 (centres unmarked) [TR-270, N-(5-(3,5-difluorobenzyl)-1H-indazol-3-yl)-4-(4-((1-(2-(2,6-dioxopiperidin-3-yl)-1,3-dioxoisoindolin-5-yl)pyrrolidin-3-yl)methyl)piperazin-1-yl)-2-((tetrahydro-2H-pyran-4-yl)amino)benzamide]	> 80	10.3		
O=C1CCC(N2C(=O)c3ccc(N4CCC(CN5CCN(c6ccc(C(=O)Nc7n[nH]c8ccc(Cc9cc(F)cc(F)c9)cc78)c(NC7CCOCC7)c6)CC5)CC4)cc3C2=O)C(=O)N1 (centres unmarked) [TR-271, N-(5-(3,5-Difluorobenzyl)-1H-indazol-3-yl)-4-(4-((1-(2-(2,6-dioxopiperidin-3-yl)-1,3-dioxoisoindolin-5-yl)piperidin-4-yl)methyl)piperazin-1-yl)-2-((tetrahydro-2H-pyran-4-yl)amino)benzamide]	> 80	22		
O=C1CCC(N2C(=O)c3ccc(N4CCCC(CN5CCN(c6ccc(C(=O)Nc7n[nH]c8ccc(Cc9cc(F)cc(F)c9)cc78)c(NC7CCOCC7)c6)CC5)C4)cc3C2=O)C(=O)N1 (centres unmarked) [TR-272]	50 to 80	20.1		
